Experimental data published in ChEMBL document CHEMBL5131424, “Synthesis and evaluation of antibacterial and trypanocidal activity of derivatives of monensin A” (Bioorg Med Chem Lett, 2022).
In brackets after ≈: the same amount, converted by molar mass.

Columns and labels:
[1] = system: Staphylococcus epidermidis; experiment: Antibacterial activity against Staphylococcus epidermidis 829/19; format: functional
[2] = system: Staphylococcus epidermidis; experiment: Antibacterial activity against Staphylococcus epidermidis 851/19; format: functional
HL-60 = experiment: (§1) Cytotoxicity against human HL-60 cells assessed as reduction in cell viability measured after 24 hrs by resazurin dye based assay; format: toxicity; settings: hl-60, 24 h
[3] = as §1; format: toxicity; settings: HL-60 cells
[4] = system: Staphylococcus epidermidis; experiment: Antibacterial activity against Staphylococcus epidermidis 848/19; format: functional
[5] = system: Staphylococcus epidermidis; experiment: Antibacterial activity against Staphylococcus epidermidis ATCC 12228; format: functional
[6] = system: Staphylococcus epidermidis; experiment: Antibacterial activity against Staphylococcus epidermidis 825/19; format: functional
Staphylococcus aureus [7] = experiment: Antibacterial activity against Staphylococcus aureus ATCC 6538; format: functional
[8] = system: Staphylococcus epidermidis; experiment: Antibacterial activity against Staphylococcus epidermidis 840/19; format: functional
[9] = system: Staphylococcus epidermidis; experiment: Antibacterial activity against Staphylococcus epidermidis 845/19; format: functional
[10] = system: Staphylococcus epidermidis; experiment: Antibacterial activity against Staphylococcus epidermidis 830/19; format: functional
[11] = Selectivity ratio of GI50 for cytotoxicity against human HL-60 cells to GI50 for antitrypanosomal activity against bloodstream form of Trypanosoma brucei clone 427-221a; format: toxicity, cell-based; settings: read-out: RatioGI50
[12] = system: Staphylococcus epidermidis; experiment: Antibacterial activity against Staphylococcus epidermidis 834/19; format: functional
Pseudomonas aeruginosa [13] = experiment: Antibacterial activity against Pseudomonas aeruginosa ATCC 15442; format: functional
Trypanosoma brucei = experiment: Antitrypanosomal activity against bloodstream form of Trypanosoma brucei clone 427-221a measured after 24 hrs by resazurin dye based assay; format: functional
Staphylococcus aureus [14] = experiment: Antibacterial activity against Staphylococcus aureus ATCC 25923; format: functional
Pseudomonas aeruginosa [15] = experiment: Antibacterial activity against Pseudomonas aeruginosa […]; format: functional
[16] = Selectivity ratio of MIC for cytotoxicity against human HL-60 cells to MIC for antitrypanosomal activity against bloodstream form of Trypanosoma brucei clone 427-221a; format: toxicity, cell-based
[17] = system: Staphylococcus epidermidis; experiment: Antibacterial activity against Staphylococcus epidermidis ATCC 35984; format: functional
Staphylococcus aureus [18] = experiment: Antibacterial activity against Staphylococcus aureus ATCC 29213; format: functional
Escherichia coli [19] = experiment: Antibacterial activity against Escherichia coli ATCC 25922; format: functional
Staphylococcus aureus [20] = experiment: Antibacterial activity against Staphylococcus aureus NCTC 4163; format: functional
Escherichia coli [21] = experiment: Antibacterial activity against Escherichia coli NCTC 10538; format: functional

SMILES | MIC [1] [µg/mL] | MIC [2] [µg/mL] | MIC (HL-60) [µM] | GI50 at 24 h [3] [µM] | MIC [4] [µg/mL] | MIC [5] [µg/mL] | MIC [6] [µg/mL] | MIC [8] [µg/mL] | MIC [9] [µg/mL] | MIC [10] [µg/mL] | selectivity ratio [11] | MIC [12] [µg/mL] | MIC (Pseudomonas aeruginosa [13]) [µg/mL] | GI50 (Trypanosoma brucei) [µM] | MIC (Trypanosoma brucei) [µM] | MIC (Staphylococcus aureus [14]) [µg/mL] | MIC (Pseudomonas aeruginosa [15]) [µg/mL] | selectivity ratio [16] | MIC [17] [µg/mL] | MIC (Staphylococcus aureus [20]) [µg/mL] | further results
CCCNC(=O)OC[C@]1(O)O[C@H]([C@H]2C[C@H](C)[C@H]([C@]3(CO)CC[C@H]([C@]4(C)CC[C@]5(C[C@H](O)[C@@H](C)[C@@H]([C@@H](C)[C@@H](OC)[C@H](C)C(=O)O)O5)O4)O3)O2)[C@@H](C)C[C@H]1C | 4 (≈ 5.28 µM) | 4 (≈ 5.28 µM) | 100 (≈ 75.8 µg/mL) | 24.5 | 4 (≈ 5.28 µM) | 4 (≈ 5.28 µM) | 2 (≈ 2.64 µM) | 4 (≈ 5.28 µM) | 4 (≈ 5.28 µM) | 4 (≈ 5.28 µM) | 8.3 | 4 (≈ 5.28 µM) | > 256 | 2.94 | 10 (≈ 7.58 µg/mL) | 2 (≈ 2.64 µM) | > 256 | 10 | 8 (≈ 10.6 µM) | 2 (≈ 2.64 µM) | MIC (Staphylococcus aureus [7]): 2 µg/mL (≈ 2.64 µM); MIC (Staphylococcus aureus [18]): 4 µg/mL (≈ 5.28 µM); MIC (Escherichia coli [19]): > 256 µg/mL; MIC (Escherichia coli [21]): > 256 µg/mL
CO[C@H]([C@H](C)[C@H]1O[C@@]2(CC[C@@](C)([C@H]3CC[C@@](CO)([C@@H]4O[C@@H]([C@H]5O[C@@](O)(COC(=O)NC(=O)CCl)[C@H](C)C[C@@H]5C)C[C@@H]4C)O3)O2)C[C@H](O)[C@H]1C)[C@H](C)C(=O)O | 16 (≈ 20.2 µM) | 16 (≈ 20.2 µM) | 10 (≈ 7.92 µg/mL) | 3.51 | 16 (≈ 20.2 µM) | 2 (≈ 2.52 µM) | 8 (≈ 10.1 µM) | 16 (≈ 20.2 µM) | 32 (≈ 40.4 µM) | 16 (≈ 20.2 µM) | 746 | 8 (≈ 10.1 µM) | > 256 | 0.0047 | 0.1 (≈ 0.0792 µg/mL) | 1 (≈ 1.26 µM) | > 256 | 100 | 2 (≈ 2.52 µM) | 2 (≈ 2.52 µM) | MIC (Staphylococcus aureus [7]): 2 µg/mL (≈ 2.52 µM); MIC (Staphylococcus aureus [18]): 2 µg/mL (≈ 2.52 µM); MIC (Escherichia coli [19]): > 256 µg/mL; MIC (Escherichia coli [21]): > 256 µg/mL
CO[C@H]([C@H](C)[C@H]1O[C@@]2(CC[C@@](C)([C@H]3CC[C@@](CO)([C@@H]4O[C@@H]([C@H]5O[C@@](O)(COC(=O)NCCCCl)[C@H](C)C[C@@H]5C)C[C@@H]4C)O3)O2)C[C@H](O)[C@H]1C)[C@H](C)C(=O)O | 4 (≈ 5.05 µM) | 4 (≈ 5.05 µM) | 100 (≈ 79.2 µg/mL) | 18.1 | 8 (≈ 10.1 µM) | 4 (≈ 5.05 µM) | 2 (≈ 2.52 µM) | 8 (≈ 10.1 µM) | 4 (≈ 5.05 µM) | 4 (≈ 5.05 µM) | 5.9 | 4 (≈ 5.05 µM) | > 256 | 3.05 | 10 (≈ 7.92 µg/mL) | 2 (≈ 2.52 µM) | > 256 | 10 | 4 (≈ 5.05 µM) | 2 (≈ 2.52 µM) | MIC (Staphylococcus aureus [7]): 2 µg/mL (≈ 2.52 µM); MIC (Staphylococcus aureus [18]): 4 µg/mL (≈ 5.05 µM); MIC (Escherichia coli [19]): > 256 µg/mL; MIC (Escherichia coli [21]): > 256 µg/mL
CO[C@H]([C@H](C)[C@H]1O[C@@]2(CC[C@@](C)([C@H]3CC[C@@](CO)([C@@H]4O[C@@H]([C@H]5O[C@@](O)(COC(=O)c6ccccc6)[C@H](C)C[C@@H]5C)C[C@@H]4C)O3)O2)C[C@H](O)[C@H]1C)[C@H](C)C(=O)O | 2 (≈ 2.57 µM) | 1 (≈ 1.29 µM) | 100 (≈ 77.7 µg/mL) | 18.3 | 2 (≈ 2.57 µM) | 1 (≈ 1.29 µM) | 0.5 (≈ 0.644 µM) | 2 (≈ 2.57 µM) | 2 (≈ 2.57 µM) | 1 (≈ 1.29 µM) | 7 | 1 (≈ 1.29 µM) | > 256 | 2.62 | 10 (≈ 7.77 µg/mL) | 1 (≈ 1.29 µM) | > 256 | 10 | 1 (≈ 1.29 µM) | 1 (≈ 1.29 µM) | MIC (Staphylococcus aureus [7]): 1 µg/mL (≈ 1.29 µM); MIC (Staphylococcus aureus [18]): 1 µg/mL (≈ 1.29 µM); MIC (Escherichia coli [19]): > 256 µg/mL; MIC (Escherichia coli [21]): > 256 µg/mL
CO[C@H]([C@H](C)[C@H]1O[C@@]2(CC[C@@](C)([C@H]3CC[C@@](CO)([C@@H]4O[C@@H]([C@H]5O[C@@](O)(COC(C)=O)[C@H](C)C[C@@H]5C)C[C@@H]4C)O3)O2)C[C@H](O)[C@H]1C)[C@H](C)C(=O)O | 1 (≈ 1.4 µM) | 2 (≈ 2.8 µM) | 10 (≈ 7.15 µg/mL) | 5.51 | 1 (≈ 1.4 µM) | 1 (≈ 1.4 µM) | 0.25 (≈ 0.35 µM) | 2 (≈ 2.8 µM) | 2 (≈ 2.8 µM) | 1 (≈ 1.4 µM) | 19 | 1 (≈ 1.4 µM) | > 256 | 0.29 | 1 (≈ 0.715 µg/mL) | 1 (≈ 1.4 µM) | > 256 | 10 | 2 (≈ 2.8 µM) | 2 (≈ 2.8 µM) | MIC (Staphylococcus aureus [7]): 2 µg/mL (≈ 2.8 µM); MIC (Staphylococcus aureus [18]): 2 µg/mL (≈ 2.8 µM); MIC (Escherichia coli [19]): > 256 µg/mL; MIC (Escherichia coli [21]): > 256 µg/mL
CCNC(=O)OC[C@]1(O)O[C@H]([C@H]2C[C@H](C)[C@H]([C@]3(CO)CC[C@H]([C@]4(C)CC[C@]5(C[C@H](O)[C@@H](C)[C@@H]([C@@H](C)[C@@H](OC)[C@H](C)C(=O)O)O5)O4)O3)O2)[C@@H](C)C[C@H]1C | 8 (≈ 10.8 µM) | 16 (≈ 21.5 µM) | 100 (≈ 74.4 µg/mL) | 85.8 | 16 (≈ 21.5 µM) | 8 (≈ 10.8 µM) | 8 (≈ 10.8 µM) | 8 (≈ 10.8 µM) | 8 (≈ 10.8 µM) | 8 (≈ 10.8 µM) | 28.1 | 4 (≈ 5.38 µM) | > 256 | 3.05 | 10 (≈ 7.44 µg/mL) | 4 (≈ 5.38 µM) | > 256 | 10 | 16 (≈ 21.5 µM) | 8 (≈ 10.8 µM) | MIC (Staphylococcus aureus [7]): 8 µg/mL (≈ 10.8 µM); MIC (Staphylococcus aureus [18]): 8 µg/mL (≈ 10.8 µM); MIC (Escherichia coli [19]): > 256 µg/mL; MIC (Escherichia coli [21]): > 256 µg/mL
CCCCCCCCCC(=O)OC[C@]1(O)O[C@H]([C@H]2C[C@H](C)[C@H]([C@]3(CO)CC[C@H]([C@]4(C)CC[C@]5(C[C@H](O)[C@@H](C)[C@@H]([C@@H](C)[C@@H](OC)[C@H](C)C(=O)O)O5)O4)O3)O2)[C@@H](C)C[C@H]1C | 2 (≈ 2.42 µM) | 2 (≈ 2.42 µM) | 100 (≈ 82.7 µg/mL) | 10 | 2 (≈ 2.42 µM) | 2 (≈ 2.42 µM) | 1 (≈ 1.21 µM) | 2 (≈ 2.42 µM) | 2 (≈ 2.42 µM) | 2 (≈ 2.42 µM) | 263 | 2 (≈ 2.42 µM) | > 256 | 0.038 | 1 (≈ 0.827 µg/mL) | 1 (≈ 1.21 µM) | > 256 | 100 | 2 (≈ 2.42 µM) | 2 (≈ 2.42 µM) | MIC (Staphylococcus aureus [7]): 2 µg/mL (≈ 2.42 µM); MIC (Staphylococcus aureus [18]): 2 µg/mL (≈ 2.42 µM); MIC (Escherichia coli [19]): > 256 µg/mL; MIC (Escherichia coli [21]): > 256 µg/mL
O=C(O)c1cn(C2CC2)c2cc(N3CCNCC3)c(F)cc2c1=O [CIPROFLOXACIN] | ≤ 0.125 | ≤ 0.125 | – | – | ≤ 0.125 | 0.5 (≈ 1.51 µM) | 4 (≈ 12.1 µM) | ≤ 0.125 | 16 (≈ 48.3 µM) | 64 (≈ 193 µM) | – | ≤ 0.125 | < 0.125 | – | – | 0.5 (≈ 1.51 µM) | < 0.125 | – | 0.25 (≈ 0.754 µM) | 0.25 (≈ 0.754 µM) | –
Cc1ccc(C(=O)Nc2ccc(S(=O)(=O)O)c3cc(S(=O)(=O)O)cc(S(=O)(=O)O)c23)cc1NC(=O)c1cccc(NC(=O)Nc2cccc(C(=O)Nc3cc(C(=O)Nc4ccc(S(=O)(=O)O)c5cc(S(=O)(=O)O)cc(S(=O)(=O)O)c45)ccc3C)c2)c1 [SURAMIN] | – | – | > 100 | > 100 | – | – | – | – | – | – | > 2000 | – | – | 0.05 | 1 (≈ 1.3 µg/mL) | – | – | > 100 | – | – | –
